Test results taken from ChEMBL document CHEMBL1147221, “Illudin S, the sole antiviral compound in mature fruiting bodies of Omphalotus illudens” (J Nat Prod, 2003).
Calls of active or inactive are those of the source. No cut-off for these calls is given here.

Key:
Human alphaherpesvirus 1 [1] = test: Antiviral activity against HSV1 infected in african green monkey CV1 cells at 0.05 ug/disk by filter disk method; type: functional, organism-based; details: CV-1
[2] = Cytotoxicity against african green monkey CV1 cells at 0.015 ug/disk by neutral red staining; type: cell-based; details: chlorocebus aethiops, cv-1
Human alphaherpesvirus 1 [3] = test: Antiviral activity against HSV1 infected in african green monkey CV1 cells at 0.005 ug/disk by filter disk method; type: functional, organism-based; details: CV-1
[4] = Cytotoxicity against african green monkey CV1 cells at 0.005 ug/disk by neutral red staining; type: cell-based; details: chlorocebus aethiops, cv-1
[5] = Cytotoxicity against african green monkey CV1 cells at 5 ug/disk by neutral red staining; type: cell-based; details: chlorocebus aethiops, cv-1
Human alphaherpesvirus 1 [6] = test: Antiviral activity against HSV1 infected in african green monkey CV1 cells at 2.5 ug/disk by filter disk method; type: functional, organism-based; details: CV-1
Human alphaherpesvirus 1 [7] = test: Antiviral activity against HSV1 infected in african green monkey CV1 cells at 0.25 ug/disk by filter disk method; type: functional, organism-based; details: CV-1
Human alphaherpesvirus 1 [8] = test: Antiviral activity against HSV1 infected in african green monkey CV1 cells at 0.5 ug/disk by filter disk method; type: functional, organism-based; details: CV-1
[9] = Cytotoxicity against african green monkey CV1 cells at 2.5 ug/disk by neutral red staining; type: cell-based; details: chlorocebus aethiops, cv-1
Human alphaherpesvirus 1 [10] = test: Antiviral activity against HSV1 infected in african green monkey CV1 cells at 5 ug/disk by filter disk method; type: functional, organism-based; details: CV-1
[11] = Cytotoxicity against african green monkey CV1 cells at 0.05 ug/disk by neutral red staining; type: cell-based; details: chlorocebus aethiops, cv-1
[12] = Cytotoxicity against african green monkey CV1 cells at 1 ug/disk by neutral red staining; type: cell-based; details: chlorocebus aethiops, cv-1
[13] = Cytotoxicity against african green monkey CV1 cells at 0.5 ug/disk by neutral red staining; type: cell-based; details: chlorocebus aethiops, cv-1
[14] = Cytotoxicity against african green monkey CV1 cells at 0.025 ug/disk by neutral red staining; type: cell-based; details: chlorocebus aethiops, cv-1
[15] = Cytotoxicity against african green monkey CV1 cells at 10 ug/disk by neutral red staining; type: cell-based; details: chlorocebus aethiops, cv-1
Human alphaherpesvirus 1 [16] = test: Antiviral activity against HSV1 infected in african green monkey CV1 cells at 10 ug/disk by filter disk method; type: functional, organism-based; details: CV-1
Human alphaherpesvirus 1 [17] = test: Antiviral activity against HSV1 infected in african green monkey CV1 cells at 0.010 ug/disk by filter disk method; type: functional, organism-based; details: CV-1
Human alphaherpesvirus 1 [18] = test: Antiviral activity against HSV1 infected in african green monkey CV1 cells at 1 ug/disk by filter disk method; type: functional, organism-based; details: CV-1
[19] = Cytotoxicity against african green monkey CV1 cells at 0.010 ug/disk by neutral red staining; type: cell-based; details: chlorocebus aethiops, cv-1
[20] = Cytotoxicity against african green monkey CV1 cells at 0.1 ug/disk by neutral red staining; type: cell-based; details: chlorocebus aethiops, cv-1
[21] = Cytotoxicity against african green monkey CV1 cells at 0.15 ug/disk by neutral red staining; type: cell-based; details: chlorocebus aethiops, cv-1
Human alphaherpesvirus 1 [22] = test: Antiviral activity against HSV1 infected in african green monkey CV1 cells at 0.1 ug/disk by filter disk method; type: functional, organism-based; details: CV-1
[23] = Cytotoxicity against african green monkey CV1 cells at 0.25 ug/disk by neutral red staining; type: cell-based; details: chlorocebus aethiops, cv-1
Human alphaherpesvirus 1 [24] = test: Antiviral activity against HSV1 infected in african green monkey CV1 cells at 0.15 ug/disk by filter disk method; type: functional, organism-based; details: CV-1

For CC1=C2C(=C[C@@](C)(CO)[C@@H]2O)C(=O)[C@](C)(O)C12CC2 [ILLUDIN], the Activity (Human alphaherpesvirus 1 [1]) was “Active”, the Activity [2] was “Non-toxic” and the Activity (Human alphaherpesvirus 1 [3]) was “inactive”. The Activity [4] was “Non-toxic”, the Activity [5] was “Toxic” and the Activity (Human alphaherpesvirus 1 [6]) was “inactive”. The Activity (Human alphaherpesvirus 1 [7]) was “inactive”, the Activity (Human alphaherpesvirus 1 [8]) was “inactive” and the Activity [9] was “Toxic”. For the same compound, the Activity (Human alphaherpesvirus 1 [10]) was “inactive”, the Activity [11] was “Non-toxic” and the Activity [12] was “Toxic”. For the same compound, the Activity [13] was “Toxic”, the Activity [14] was “Non-toxic” and the Activity [15] was “Toxic”. For the same compound, the Activity (Human alphaherpesvirus 1 [16]) was “inactive”, the Activity (Human alphaherpesvirus 1 [17]) was “inactive” and the Activity (Human alphaherpesvirus 1 [18]) was “inactive”. For the same compound, the Activity [19] was “Non-toxic”, the Activity [20] was “Non-toxic” and the Activity [21] was “Non-toxic”. The Activity (Human alphaherpesvirus 1 [22]) was “Active”, the Activity [23] was “Toxic” and the Activity (Human alphaherpesvirus 1 [24]) was “Active”.
